# Data as given in US8138196B2, “Antifungal wallboards and building materials and methods for the production thereof” (Syngenta Crop Protection, Inc., priority 2005, dated 2012).
# Experiments:
# Assay type in all cases: cell-based
# [1] = test system: Alternaria tenuissima (DSM 63360); assay: Example 3 liquid culture assay on 24 well plates, solo and 2-way mixtures
# Excerpt: (§1) Alternaria tenuissima (DSM 63360), Penicillium chrysogenum (DSM 895), Stachybotrys chartarum (DSM2144), Aspergillus niger (DSM 63263), Aspergillus versicolor (DSM 1943) and Aureobasidium pullulans (ATCC 15233) were separately cultivated on PDA media to […] sporulation. Spore suspensions were produced for each fungi. Spore concentrations of approx. 100.000 spores/ml were used.
# (§2) Test method used: liquid culture assay on 24 well plates.
# (§3) For solo (i.e. single) ai testing the formulated fungicide (100 ul) was filled into the 24 well plates and 100 ul distilled water was added. Afterwards 800 ul of 0.3% AE media was added to the plate. The spore suspension of the specific fungi was added to this media in advance containing approx. 100,000 spores/ml. The 24 well plates were sealed and incubated at 24° C.
# (§4) Dependent on the growth properties of each organisms, the evaluation was done after 3 to 6 days, when the surface of the check well was covered with mycelium. The evaluation was performed by assessing the growth of the fungi related to the check growth. The results are expressed as % activity relative to the check (values of 0-100% growth). Afterwards the results were converted in % O growth inhibition.
# (§5) For synergism testing of the 2-way mixtures 100 ul of each fungicide were filled into 24 well plates and 800 ul of 0.3% AE media containing the spore suspension was added. Different ratios of the 2 fungicide rates were tested at the same time.
# (§6) For the mixtures of different fungicides the synergism was calculated based on the Colby equation, which is described below: […]
# (§7) The fungicidal action to be expected, We, for a given combination of two fungicides can be calculated as follows (see COLBY, S. R. “Calculating synergistic and antagonistic response of herbicide combinations”. Weeds 15, pages 20-22; 1967): We=X+[Y×(100−X)/100] wherein: • X=% activity in the case of treatment with the compound of formula I at rate x, in comparison with untreated control (=0%). • Y=% activity in the case of treatment with a compound of formula II at rate y, in comparison with untreated control. • We=expected activity (% activity in comparison with untreated control) after treatment with the compound of formula I and a compound of formula II at a rate of x+y kg of active ingredient.
# (§8) If the activity actually observed is greater than the expected value We (factor observed activity/expected activity >1.2), there is a synergistic effect.
# [2] = test system: Aspergillus niger (DSM 63263); assay: as above; details: test 006-2005
# Excerpt: as §1, §2, §3, §4, §5, §6, §7, §8
# [3] = test system: Aspergillus versicolor (DSM 1943); assay: as above; details: test 006-2005; rate (FDL) 0.05 mg ai/l
# Excerpt: as §1, §2, §3, §4, §5, §6, §7, §8
# [4] = test system: Penicillium chrysogenum (DSM 895); assay: as above; details: test 006-2005
# Excerpt: as §1, §2, §3, §4, §5, §6, §7, §8
# [5] = test system: Alternaria tenuissima (DSM 63360); assay: Example 4 liquid culture assay on 24 and 48 well plates, 3 way mixtures; details: A. tenuissima
# Excerpt: (§9) For test 006-2005: Alternaria tenuissima (DSM 63360), Penicillium chrysogenum (DSM 895), Cladosporium cladosporoides (DSM62121), Aspergillus niger (DSM 63263), Aspergillus versicolor (DSM 1943) and Aureobasidium pullulans (ATCC 15233) were separately cultivated on PDA media to […] sporulation. Spore suspensions were produced for each fungus. Spore concentrations of approx. 100,000 spores/ml were used.
# (§10) […] Spore suspensions were produced for each fungus. Spore concentrations of approx. 100,000 spores/ml were used.
# (§11) Test method used: liquid culture assay on 24 and 48 well plates respectively.
# (§12) For testing of the 3 way mixtures each of the formulated fungicide (100 ul) was filled into the 24 and 48 well plates respectively. Afterwards 700 ul of 0.3% AE media was added to the plate. The spore suspension of the specific fungi was added to this media in advance containing approx. 100,000 spores/ml. For testing the solo compounds the equivalent of distilled water was added instead of the formulated fungicide volume of the mixing partners. The plates were then sealed and incubated at 24° C.
# (§13) Dependent on the growth properties of each organisms, the evaluation was done after 3 to 6 days, when the surface of the check well was covered with mycelium. The evaluation was performed by assessing the growth of the fungi related to the check growth. The results are expressed as % activity relative to the check (values of 0-100% growth). Afterwards the results were converted in % growth inhibition.
# (§14) For the mixtures of different fungicides the synergism was calculated based on the Colby equation, which is described above.
# [6] = test system: Aspergillus niger (DSM 63263); assay: as above; details: A. niger
# Excerpt: as §9
# For test 015-2006: Alternaria tenuissima (DSM 63360), Penicillium pinophilum (CBS342.61), Gliocladium virens (DSM1963), Aspergillus niger (DSM 63263), Stachybotrys chartarum (DSM 2144) and Aureobasidium pullulans (ATCC 15233) were separately cultivated on PDA media to […] sporulation. Spore suspensions were produced for each fungus. Spore concentrations of approx. 100,000 spores/ml were used.
# as §11, §12, §13, §14
# [7] = test system: Aspergillus versicolor (DSM 1943); assay: as above; details: test 006-2005, A. versicolor
# Excerpt: as §9, §11, §12, §13, §14
# [8] = test system: Stachybotrys chartarum (DSM 2144); assay: as above; details: test 015-2005, S. chartarum
# Method: as §10, §11, §12, §13, §14
structure (smiles),measurement,setting,value
N#Cc1c[nH]cc1-c1cccc2c1OC(F)(F)O2 [Fludioxonil],inh % (FDL alone),"[1]; test 006-2005, rate (FDL) 0.2 mg ai/l",70%
same,inh % (FDL alone),"[1]; test 015-2005, rate (FDL) 0.2 mg ai/l",30%
same,inh % (FDL alone),"[1]; test 015-2005, rate (FDL) 0.4 mg ai/l",30%
same,inh % (FDL alone),"[1]; test 015-2005, rate (FDL) 0.8 mg ai/l",30%
same,inh % (FDL alone),"[1]; test 015-2005, rate (FDL) 1.6 mg ai/l",50%
same,inh % (FDL alone),"[1]; test 015-2005, rate (FDL) 3.1 mg ai/l",50%
same,inh % (FDL alone),"[1]; test 015-2005, rate (FDL) 6.25 mg ai/l",50%
same,inh % (FDL alone),"[1]; test 015-2005, rate (FDL) 12.5 mg ai/l",70%
same,inh % (FDL alone),"[1]; test 015-2005, rate (FDL) 25 mg ai/l",70%
same,inh % (FDL alone),"[1]; test 015-2005, rate (FDL) 50 mg ai/l",70%
same,inh % (FDL alone),"[1]; test 015-2005, rate (FDL) 100 mg ai/l",70%
same,inh % (FDL alone),"[1]; test 015-2005, rate (FDL) 200 mg ai/l",50%
same,inh % (FDL alone),[2]; rate (FDL) 0.2 mg ai/l,50%
same,inh % (FDL alone),[2]; rate (FDL) 0.8 mg ai/l,70%
same,inh % (FDL alone),[2]; rate (FDL) 1.6 mg ai/l,70%
same,inh % (FDL alone),[2]; rate (FDL) 3.12 mg ai/l,70%
same,inh % (FDL alone),[2]; rate (FDL) 12.5 mg ai/l,70%
same,inh % (FDL alone),[3],10%
same,inh % (FDL alone),[4]; rate (FDL) 0.05 mg ai/l,0%
same,inh % (FDL alone),[4]; rate (FDL) 0.2 mg ai/l,50%
same,inh % (FDL alone),"[5]; test 006-2005, FDL 0.2 mg ai/l",50%
same,inh % (FDL alone),"[5]; test 006-2005, FDL 0.8 mg ai/l",70%
same,inh % (FDL alone),"[5]; test 006-2005, FDL 1.6 mg ai/l",70%
same,inh % (FDL alone),"[5]; test 015-2005, FDL 0.8 mg ai/l",50%
same,inh % (FDL alone),"[5]; test 015-2005, FDL 1.6 mg ai/l",50%
same,inh % (FDL alone),"[6]; test 006-2005, FDL 0.8 mg ai/l",50%
same,inh % (FDL alone),"[6]; test 015-2005, FDL 0.8 mg ai/l",50%
same,inh % (FDL alone),"[6]; test 015-2005, FDL 1.6 mg ai/l",50%
same,inh % (FDL alone),"[6]; test 015-2005, FDL 3.1 mg ai/l",50%
same,inh % (FDL alone),[7]; FDL 0.2 mg ai/l,0%
same,inh % (FDL alone),[7]; FDL 0.8 mg ai/l,0%
same,inh % (FDL alone),[7]; FDL 1.6 mg ai/l,0%
same,inh % (FDL alone),[8]; FDL 0.05 mg ai/l,10%
same,inh % (FDL alone),[8]; FDL 0.2 mg ai/l,50%
